The text below walks through data of US4883808A, “Condensation products of cyclic diketones and ascorbic acid as immunomodulatory agents” (American Biotechnology Company, priority 1988, dated 1989).

The test system of data set [1] is feline leukemia virus. Kind of data set: antiviral test of Sidewell and Huffman, feline leukemia virus in 81C cells. The settings on record: 81C cell line. Type of data set: cell-based, feline leukemia virus (81C feline kidney cell). The method, then: The virus rating (VR) of Compound A of this invention when tested in accordance with the method of […] and Huffman (Appl. Microbiol. 22:795-801, 1971) against adenovirus type 2 utilizing HEp-2 as the target cell was greater than 0.2. […] The minimum toxic concentration (MTC) was greater than 320 μg/ml. The same compound was also tested against feline leukemia virus by the […] and Huffman procedure using the […] cell line as the target. The […] cell is a feline kidney cell transformed with a murine leukemia virus (ras gene +) with the following results. The therapeutic index of the compound which is a measure of the compounds ability to protect the cell against the virus without adversely affecting cell growth was 22.

In data set [2] the test system is adenovirus type 2. In words: antiviral test of Sidewell and Huffman, adenovirus type 2 in HEp-2 cells. The class given is cell-based. Conditions: HEp-2 target cell. The method, then: The virus rating (VR) of Compound A of this invention when tested in accordance with the method of Sidewell and Huffman (Appl. Microbiol. 22:795-801, 1971) against adenovirus type 2 utilizing HEp-2 as the target cell was greater than 0.2. […] The minimum toxic concentration (MTC) was greater than 320 μg/ml.

Data set [3] has as its system T- and B-lymphocytes isolated from mouse spleens. In words: lymphocyte blastogenesis assay (mouse spleen lymphocytes, C-14 methyl thymidine uptake). The class given is cell-based. Further details: LPS 5.0 (lymphocyte blastogenesis) / RPMI (lymphocyte blastogenesis): unit not given here. The settings on record: for LPS 5.0 (lymphocyte blastogenesis) / % CHANGE (LPS): LPS 5.0 MG/KG; for % CHANGE (LPS) / % CHANGE (PHA): vs 0 mg/kg; for PHA 10.0 (lymphocyte blastogenesis) / % CHANGE (PHA): PHA 10.0 UG/KG; for RPMI (lymphocyte blastogenesis): media, no mitogen. The text has this: One of these tests is the lymphocyte blastogenesis assay which measures the ability of the compound under test to affect DNA synthesis and mitosis of T- and B- lymphocytes isolated from mouse spleens.
Mitogens are substances which stimulate DNA synthesis and mitosis. The mitogens used in these studies were phytohemaglutinin (PHA) which is isolated from the red kidney bean and a lipopolysacharide isolated from Salmonella tythimurium (LPS).
The lymphocyte blastogenesis test is a method to assess the ability of immunocompetent T- or B-cells to respond to mitogens or a specific antigen. It may be performed on lymphocytes obtained from mice treated with immunostimulators in vivo or the entire assay can be performed in vitro. The assay as described below uses minimal doses of polyclonal mitogens to induce blastogenesis (proliferation measured by DNA synthesis), in order to be able to assess the phenomena of amplification.
The lymphocyte blastogenesis test is carried out as follows:
1. Sacrifice two mice/experimental group by cervical dislocation.
2. Immerse mice in a mild disinfectant solution (Povadyne).
3. Remove spleens and place in a sterile 6 well plate containing 5 ml/well of RPMI-1640.
4. Make a single cell suspension by mincing spleens with a sterile toothed forcep.
5. Place cell suspension in a sterile centrifuge tube and allow large clumps to settle for 10 minutes.
6. Remove single cell suspension by pipetting supernatant into another sterile centrifuge tube.
7. Centrifuge cell suspension for 10 mins. at 1100 RPM in GLC-2B.
8. Aseptically remove supernatant and discard.
9. Resuspend cell button in 5 mls of RPMI-1640, and centrifuge. Wash cells in this manner two more times.
10. Resuspend cells in 5 mls of RPMI-1640 containing 10-15% Human AB heat-inactivated (Pel-Freeze, Rogers, AR or BioBee, Boston, MA).
11. Perform viable cell count using 0.25% trypan blue exclusion dye made in physiological isotonic saline. Non-viable cells stain blue.
12. Adjust viable cell concentration to […] in RPMI-1640 containing human AB sera.
13. Aliquot in sextuplicate wells of a 96 well sterile round bottom tissue culture plate with 0.1 ml/well of the various cell suspensions to be tested.
14. Add to above replicate sextuplicate cells selected quantities of mitogen.
15. Include in the experiment a control plate which contains the same cell groups as above, but receive a 0.1 ml of media instead of mitogen.
16. Humidify plate by filling outside wells of plate with media.
17. Incubate plates at […] with 5% CO-2 for 48 hours.
18. After 48 hours all wells receive 0.025 mls of a 0.4 microcurie/ml solution of C-14 methyl thymidine and incubate at 37 C, 5% CO-2 for 18 hours.
19. The cells are harvested using a Brandel M-12 Cell Harvestor (Brandel, Rockfille, MD) onto filter paper discs using phosphate buffered saline at physiological osmolarity. (285-320 mos).
20. The filter paper disks are placed into Packard mini-scintillation vials and allowed to dry for 18 hours.
21. Once dried, the vials are filled with 2 mls of a scintillation cocktail containing 4 liters of scintillation grade toluene, 16.0 g of 2,5-diphenyloxazole (PPO) and 0.4 g of 1,4-Bis (2-(5-Phenyloxazoly) benzene (POPOP).
22. The vials are counted in a LKB 1212 Rackbeta (LKB Instruments, Gaithersburg, MD) Liquid scintillation counter for two minutes/vial.

With “<3,3'>-hemiketal-<3,6>-ketal of 2-(1',3'-diketo-4'-cyclopentyl)-2-hydroxy-3-keto-4-dihydroxyethylbutyrolactone [Compound A]”, the “MTC (minimum toxic concentration)” value in data set [1] is given as 100. Further, the “ID50 (concentration in μg./ml that causes 50% reduction in virus replication)” value in data set [1] (feline leukemia virus) was found to be 4.5 µg/mL. Moreover, the “VR (virus rating)” value in data set [1] (feline leukemia virus, control 0.98) was found to be 1.1. Besides, the “minimum toxic concentration (MTC)” value in data set [2] is given as “greater than 320 μg/ml”. In addition, in data set [2] (adenovirus type 2), the “ID50 (concentration that causes 50% reduction in virus replication)” value was 505.19 µg/mL and the “virus rating (VR)” value was “greater than 0.2”.

Consider “<3,4'>-hemiketal-<3,6>-ketal of 2-(1',4'-diketo-3'-cyclohexyl)-2-hydroxy-3-keto-4-dihydroxyethylbutyrolactone [Compound B]”, for which, in data set [3] (12.5 mg/kg), the “LPS 5.0 (lymphocyte blastogenesis)” value worked out at 7195 ± 90, the “% CHANGE (LPS)” value is recorded as “+2.2%”, the “PHA 10.0 (lymphocyte blastogenesis)” value worked out at 7126 ± 1104 and the “% CHANGE (PHA)” value is recorded as -3.8%. Besides, the “RPMI (lymphocyte blastogenesis)” value in data set [3] (12.5 mg/kg) came to 605 ± 117. In data set [3] (25 mg/kg), the “LPS 5.0 (lymphocyte blastogenesis)” value is given as 8580 ± 507, the “% CHANGE (LPS)” value was “+21.9%”, the “PHA 10.0 (lymphocyte blastogenesis)” value was found to be 7563 ± 2053 and the “% CHANGE (PHA)” value was “+2.1%”. Moreover, the “RPMI (lymphocyte blastogenesis)” value in data set [3] (25 mg/kg) is reported as 1392 ± 247. For the same substance, in data set [3] (50 mg/kg), the “LPS 5.0 (lymphocyte blastogenesis)” value was determined as 6823 ± 1305, the “PHA 10.0 (lymphocyte blastogenesis)” value came to 10218 ± 2630, the “% CHANGE (PHA)” value is listed as “+37.9%” and the “RPMI (lymphocyte blastogenesis)” value is listed as 1041 ± 687. For the same substance, in data set [3] (100 mg/kg), the “LPS 5.0 (lymphocyte blastogenesis)” value amounted to 8423 ± 351, the “% CHANGE (LPS)” value was “+19.6%”, the “PHA 10.0 (lymphocyte blastogenesis)” value turned out to be 9258 ± 1391 and the “% CHANGE (PHA)” value is given as “+24.9%”. In data set [3] (100 mg/kg), the “RPMI (lymphocyte blastogenesis)” value is 705 ± 314. In data set [3] (200 mg/kg), the “LPS 5.0 (lymphocyte blastogenesis)” value is recorded as 8025 ± 1670, the “% CHANGE (LPS)” value is recorded as “+14%”, the “PHA 10.0 (lymphocyte blastogenesis)” value turned out to be 8111 ± 896 and the “% CHANGE (PHA)” value is recorded as “+9.4%”. For the same substance, in data set [3] (200 mg/kg), the “RPMI (lymphocyte blastogenesis)” value stood at 660 ± 354.
